According to publication PMC8757452 (ACS Omega, 2021):
In brackets after ≈: the same amount, converted by molar mass.

Columns and labels:
T. cruzi epimastigotes [1] = settings: ref [14], cited from earlier work
T. cruzi (K-98 clone) = assay: In vivo trypanocidal activity, murine model of Chagas disease; set-up: species or system BALB/c mice; settings: 1 mg/kg/day i.p.
T. cruzi epimastigotes [2] = assay: T. cruzi epimastigotes growth inhibition, [3H] thymidine uptake assay; type: cell-based, Trypanosoma cruzi; settings: for IC50: 72 h, read-out: IC50 (μg/mL) ± SD on T. cruzi epimastigotes; for SI (selectivity index, relation between CC50 and IC50): CC50 splenocytes / IC50 epimastigotes
HeLa cells = settings: read-out: IC50, cytotoxicity on HeLa cells, ref [28]; cited from earlier work

COC1=C(C(C)C)C(=O)C2=C(C[C@@]34CCCC(C)(C)[C@@H]3C[C@]2(O)O4)C1=O [K, Komaroviquinone]
IC50 of komaroviquinone (T. cruzi epimastigotes [1]; T. cruzi epimastigotes): a Komaroviquinone IC50 = 1.00 μg/mL ref ([14]).
log (1/IC50) of komaroviquinone (T. cruzi epimastigotes [1]; from IC50 = 1.00 μg/mL, IC50 in molar): 5.43

O=C(Cn1ccnc1[N+](=O)[O-])NCc1ccccc1 [benznidazole]
area under the parasitemia curve (AUC) (T. cruzi (K-98 clone); days 11-15 post-infection): 4
sterile cure (T. cruzi (K-98 clone); five days): neither Bz was able to cure
IC50 (T. cruzi epimastigotes [2]; Trypanosoma cruzi): 1 ± 0.62 µg/mL (≈ 3.84 µM)

C=C1C(=O)O[C@@H]2C[C@@H](C)[C@@H]3C=CC(=O)[C@@]3(C)[C@@H](O)[C@H]12 [compound 10, helenalin]
SI (selectivity index, relation between CC50 and IC50) (T. cruzi epimastigotes [2]): 1.1
IC50 (T. cruzi epimastigotes [2]; Trypanosoma cruzi): 0.29 ± 0.05 µg/mL (≈ 1.11 µM)
inhibition at 1.5 µg/mL (T. cruzi epimastigotes [2]; Trypanosoma cruzi, read-out: inhibition of parasite replication): 66%

C=C1C(=O)O[C@@H]2[C@H]1CC[C@H](C)[C@@]1(O)C=CC(=O)[C@@]21C [compound 14, hymenin]
SI (selectivity index, relation between CC50 and IC50) (T. cruzi epimastigotes [2]): 0.8
IC50 (T. cruzi epimastigotes [2]; Trypanosoma cruzi): 1.5 ± 0.09 µg/mL (≈ 5.72 µM)

C=C1C[C@H](O)[C@H](Br)C(C)(C)[C@@]12CCC(C)=C(Cl)C2 [elatol]
IC50 (HeLa cells): 1300 nM
